Laboratory results as given in patent US20110282056A1, “PROTEIN KINASE INHIBITORS AND USE THEREOF” (priority 2008, published 2011).

What was measured:
Format in all cases: biochemical
VEGFR3 = biological target: T1, VEGFR3 (Homo sapiens, UniProt P35916); test: VEGFR3 enzyme activity assay (Caliper LC3000 mobility shift); conditions: 400 uM ATP (Km), 0.4 nM VEGFR3, 90 minutes at RT
T1 construct: purchased Millpore Corp. (Millipore) 14-681
Description: (§1) Enzyme activity for VEGFR3, VEGFR2 and Flt3 were measured on the Caliper Life Sciences LC3000 (Hopkinton, Mass.). The system utilizes the principle of electroosmotic flow to separate and quantify the amount of phosphorylated-Fluorescein-labelled-peptide (product) from unphosphorylated-Fluorescein-labelled peptide (substrate). The amount of product and substrate are determined by measuring the peak heights from the electropherogram. The enzyme activity is then quantified by dividing the amount of product by the sum of the product and substrate. The inhibitory activity of a sample is measured by comparing the enzyme activity in the presence of sample versus the enzyme activity in the presence of dimethylsufoxide (DMSO). Specific assay conditions for each enzyme are listed below:
(§2) VEGFR3 assay: The peptide substrate at 1 uM (FITC-KKKKEEIYFFF-CONH2; synthesized at Tufts University, Boston, Mass.) was incubated with 400 uM of ATP, corresponding to the Michaelis-Menten (Km) constant of the enzyme/substrate reaction, and 0.4 nM of VEGFR3 (Millpore Corp., Cat. No. 14-681) for 90 minutes at RT. After 90 minutes, the reaction was stopped by the addition of 10 mM EDTA. The substrate and product were then separated on the LC3000.

VEGFR2 = biological target: T2, VEGFR2 (Homo sapiens, UniProt P35968); test: VEGFR2 enzyme activity assay (Caliper LC3000 mobility shift); conditions: 160 uM ATP (Km), 1 nM VEGFR2, 90 minutes at RT
T2 construct: purchased BPS Bioscience; San Diego, Calif; 40301
Description: as §1
as §2, with “VEGFR2” for “VEGFR3”, “(5-FL-EEPLYWSFPAKKK-CONH2;” for “(FITC-KKKKEEIYFFF-CONH2;”, “160” for “400”, “1” for “0.4”, “VEGFR2 (BPS Bioscience; San Diego, Calif.;” for “VEGFR3 (Millpore Corp.,”, “40301)” for “14-681)”

Flt3 = biological target: T3, Flt3 (Homo sapiens, UniProt P36888); test: Flt3 enzyme activity assay (Caliper LC3000 mobility shift); conditions: 350 uM ATP (Km), 3 nM Flt3, 90 minutes at RT
T3 construct: purchased BPS Bioscience; San Diego, Calif; 40225
T3 sequence (P36888 27-993): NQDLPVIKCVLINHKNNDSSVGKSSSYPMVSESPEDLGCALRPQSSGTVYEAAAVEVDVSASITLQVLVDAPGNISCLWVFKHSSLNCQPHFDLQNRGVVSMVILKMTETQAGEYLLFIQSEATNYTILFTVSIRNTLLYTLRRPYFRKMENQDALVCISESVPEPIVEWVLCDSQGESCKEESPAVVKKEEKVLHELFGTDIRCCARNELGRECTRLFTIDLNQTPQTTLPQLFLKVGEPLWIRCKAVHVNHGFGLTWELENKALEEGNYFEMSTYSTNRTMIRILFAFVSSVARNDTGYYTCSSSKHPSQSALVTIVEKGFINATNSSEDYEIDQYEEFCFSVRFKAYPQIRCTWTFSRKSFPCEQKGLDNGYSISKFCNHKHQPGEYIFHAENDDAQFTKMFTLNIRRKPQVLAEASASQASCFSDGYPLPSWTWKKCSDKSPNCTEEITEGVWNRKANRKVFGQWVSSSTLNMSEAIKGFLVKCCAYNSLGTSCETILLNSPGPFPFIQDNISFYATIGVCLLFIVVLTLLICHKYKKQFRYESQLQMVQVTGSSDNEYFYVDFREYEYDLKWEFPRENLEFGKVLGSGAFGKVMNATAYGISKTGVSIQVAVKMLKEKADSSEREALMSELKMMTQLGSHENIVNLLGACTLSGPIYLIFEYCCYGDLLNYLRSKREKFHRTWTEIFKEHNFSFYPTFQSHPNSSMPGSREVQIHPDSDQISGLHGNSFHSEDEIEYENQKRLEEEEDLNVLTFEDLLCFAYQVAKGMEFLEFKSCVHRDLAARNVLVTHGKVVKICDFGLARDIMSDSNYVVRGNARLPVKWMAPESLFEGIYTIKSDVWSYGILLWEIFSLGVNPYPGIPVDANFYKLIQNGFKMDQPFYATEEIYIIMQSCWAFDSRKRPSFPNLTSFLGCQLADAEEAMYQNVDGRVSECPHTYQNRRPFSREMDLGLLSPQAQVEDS
Description: as §1
as §2, with “Flt3” for “VEGFR3”, “(FITC-AHA-UEAIYAAPFAKKK-CONH2;” for “(FITC-KKKKEEIYFFF-CONH2;”, “350” for “400”, “3” for “0.4”, “Flt3 (BPS Bioscience; San Diego, Calif.;” for “VEGFR3 (Millpore Corp.,”, “40225)” for “14-681)”

T2 sequence (P35968 20-1356): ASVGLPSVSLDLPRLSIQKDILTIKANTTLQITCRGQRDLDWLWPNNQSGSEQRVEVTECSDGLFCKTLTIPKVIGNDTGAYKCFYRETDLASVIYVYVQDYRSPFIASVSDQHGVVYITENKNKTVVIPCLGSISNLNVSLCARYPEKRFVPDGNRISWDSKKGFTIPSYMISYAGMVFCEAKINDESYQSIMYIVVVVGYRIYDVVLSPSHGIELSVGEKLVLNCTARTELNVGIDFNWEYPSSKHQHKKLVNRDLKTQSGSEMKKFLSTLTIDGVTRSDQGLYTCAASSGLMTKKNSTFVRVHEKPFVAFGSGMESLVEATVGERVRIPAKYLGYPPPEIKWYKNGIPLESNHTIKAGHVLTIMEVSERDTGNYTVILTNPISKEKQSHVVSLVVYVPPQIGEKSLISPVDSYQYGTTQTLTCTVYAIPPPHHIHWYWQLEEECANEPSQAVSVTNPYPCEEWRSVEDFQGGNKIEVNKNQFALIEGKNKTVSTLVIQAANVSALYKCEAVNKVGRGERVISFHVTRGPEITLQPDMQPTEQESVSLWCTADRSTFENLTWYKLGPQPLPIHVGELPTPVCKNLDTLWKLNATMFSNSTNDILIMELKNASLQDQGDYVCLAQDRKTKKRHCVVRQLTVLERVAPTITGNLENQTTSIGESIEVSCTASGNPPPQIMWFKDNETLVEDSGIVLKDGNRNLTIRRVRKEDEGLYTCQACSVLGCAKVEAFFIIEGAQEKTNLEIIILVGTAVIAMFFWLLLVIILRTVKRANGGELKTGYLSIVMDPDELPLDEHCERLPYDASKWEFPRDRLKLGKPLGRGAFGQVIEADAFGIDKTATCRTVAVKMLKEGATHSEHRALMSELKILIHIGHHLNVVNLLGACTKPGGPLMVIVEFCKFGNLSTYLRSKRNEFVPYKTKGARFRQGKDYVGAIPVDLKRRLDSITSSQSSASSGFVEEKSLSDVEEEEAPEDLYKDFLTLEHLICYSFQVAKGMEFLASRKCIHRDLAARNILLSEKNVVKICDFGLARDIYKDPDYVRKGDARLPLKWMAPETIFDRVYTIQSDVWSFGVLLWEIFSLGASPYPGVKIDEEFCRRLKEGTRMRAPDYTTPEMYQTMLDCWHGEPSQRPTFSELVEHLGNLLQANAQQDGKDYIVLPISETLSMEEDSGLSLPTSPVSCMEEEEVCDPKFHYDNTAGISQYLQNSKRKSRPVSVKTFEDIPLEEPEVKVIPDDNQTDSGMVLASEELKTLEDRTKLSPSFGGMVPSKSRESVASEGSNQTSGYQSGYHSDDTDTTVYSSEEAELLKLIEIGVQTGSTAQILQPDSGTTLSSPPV
T1 sequence (P35916 25-1363): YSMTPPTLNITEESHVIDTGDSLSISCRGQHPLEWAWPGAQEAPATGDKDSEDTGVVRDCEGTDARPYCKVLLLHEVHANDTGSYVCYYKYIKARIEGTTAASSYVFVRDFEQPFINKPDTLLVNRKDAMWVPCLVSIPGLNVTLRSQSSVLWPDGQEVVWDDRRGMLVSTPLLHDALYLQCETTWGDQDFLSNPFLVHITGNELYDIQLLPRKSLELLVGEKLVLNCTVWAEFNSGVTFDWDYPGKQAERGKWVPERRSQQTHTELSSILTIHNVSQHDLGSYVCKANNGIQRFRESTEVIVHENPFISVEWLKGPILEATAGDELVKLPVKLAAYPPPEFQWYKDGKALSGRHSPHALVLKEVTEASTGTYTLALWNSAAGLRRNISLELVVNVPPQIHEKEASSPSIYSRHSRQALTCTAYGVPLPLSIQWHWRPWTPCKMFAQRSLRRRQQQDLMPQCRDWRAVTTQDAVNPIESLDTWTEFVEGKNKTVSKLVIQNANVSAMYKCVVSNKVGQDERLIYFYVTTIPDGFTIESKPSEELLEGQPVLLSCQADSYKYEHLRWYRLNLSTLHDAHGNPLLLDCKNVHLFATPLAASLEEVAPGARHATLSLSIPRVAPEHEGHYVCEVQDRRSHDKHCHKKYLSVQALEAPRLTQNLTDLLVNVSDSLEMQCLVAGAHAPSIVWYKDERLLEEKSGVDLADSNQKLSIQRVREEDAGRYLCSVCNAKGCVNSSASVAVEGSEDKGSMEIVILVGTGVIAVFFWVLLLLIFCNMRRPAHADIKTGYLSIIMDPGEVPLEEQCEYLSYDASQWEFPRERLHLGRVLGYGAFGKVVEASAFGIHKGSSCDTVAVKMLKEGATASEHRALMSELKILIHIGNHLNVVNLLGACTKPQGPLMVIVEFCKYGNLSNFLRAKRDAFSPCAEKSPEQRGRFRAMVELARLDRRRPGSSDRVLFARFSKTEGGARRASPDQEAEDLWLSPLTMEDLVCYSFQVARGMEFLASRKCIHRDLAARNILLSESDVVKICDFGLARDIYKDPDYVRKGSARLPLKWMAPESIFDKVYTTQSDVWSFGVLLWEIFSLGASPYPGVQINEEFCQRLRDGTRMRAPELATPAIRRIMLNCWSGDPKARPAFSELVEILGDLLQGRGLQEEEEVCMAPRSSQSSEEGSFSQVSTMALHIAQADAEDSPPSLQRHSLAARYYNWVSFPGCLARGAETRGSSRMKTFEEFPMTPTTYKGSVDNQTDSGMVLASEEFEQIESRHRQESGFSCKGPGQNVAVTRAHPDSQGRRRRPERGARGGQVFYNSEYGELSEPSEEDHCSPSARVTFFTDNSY

## C(#Cc1ccnc2[nH]ccc12)c1ccccc1-n1cccc1 [compound 58]
VEGFR3
  IC50: 100 to 1000 nM
VEGFR2
  IC50: > 1000 nM
Flt3
  IC50: > 1000 nM

## C[Si](C)(C)C#Cc1ncnc2[nH]ccc12 [compound 109]
VEGFR3
  IC50: > 1000 nM
VEGFR2
  IC50: > 1000 nM
Flt3
  IC50: > 1000 nM

## C(#Cc1ccnc2[nH]ccc12)c1ccccn1 [compound 86]
VEGFR3
  IC50: > 1000 nM
VEGFR2
  IC50: > 1000 nM
Flt3
  IC50: > 1000 nM

## C(#Cc1ccnc2[nH]ccc12)c1ccc(-c2csnn2)cc1 [compound 136]
VEGFR3
  IC50: > 1000 nM
VEGFR2
  IC50: > 1000 nM
Flt3
  IC50: > 1000 nM

## CC(=O)c1cccc(C#Cc2ccnc3[nH]ccc23)c1 [compound 50]
VEGFR3
  IC50: 100 to 1000 nM
VEGFR2
  IC50: > 1000 nM
Flt3
  IC50: 100 to 1000 nM

## COc1ccc(C#Cc2ccnc3[nH]ccc23)cc1 [compound 89]
VEGFR3
  IC50: > 1000 nM
VEGFR2
  IC50: > 1000 nM
Flt3
  IC50: > 1000 nM

## C(#Cc1ccnc2[nH]ccc12)c1cccc2[nH]ccc12 [compound 60]
VEGFR3
  IC50: 100 to 1000 nM
VEGFR2
  IC50: > 1000 nM
Flt3
  IC50: > 1000 nM

## O=C(c1ccc(C#Cc2ccnc3[nH]ccc23)cc1)C1CC1 [compound 134]
VEGFR3
  IC50: > 1000 nM
VEGFR2
  IC50: > 1000 nM
Flt3
  IC50: > 1000 nM

## COc1ccc(F)cc1C#Cc1ccnc2[nH]ccc12 [compound 49]
VEGFR3
  IC50: 100 to 1000 nM
VEGFR2
  IC50: > 1000 nM
Flt3
  IC50: > 1000 nM

## COc1ccc(NC(=O)Cc2ccccc2C#Cc2ccnc3[nH]ccc23)cc1 [compound 139]
VEGFR3
  IC50: > 1000 nM
VEGFR2
  IC50: > 1000 nM
Flt3
  IC50: > 1000 nM

## C#Cc1ccc(C#Cc2ccnc3[nH]ccc23)cc1 [compound 95]
VEGFR3
  IC50: > 1000 nM
VEGFR2
  IC50: > 1000 nM
Flt3
  IC50: > 1000 nM

## CC(=O)Nc1ccc(C#Cc2ccnc3[nH]ccc23)cc1 [compound 67]
VEGFR3
  IC50: 100 to 1000 nM
VEGFR2
  IC50: > 1000 nM
Flt3
  IC50: > 1000 nM

## N#Cc1ccc(C#Cc2ccnc3[nH]ccc23)cc1 [compound 100]
VEGFR3
  IC50: > 1000 nM
VEGFR2
  IC50: > 1000 nM
Flt3
  IC50: > 1000 nM

## FC(F)(F)c1cccc(C#Cc2ccnc3[nH]ccc23)c1 [compound 116]
VEGFR3
  IC50: > 1000 nM
VEGFR2
  IC50: > 1000 nM
Flt3
  IC50: > 1000 nM

## C(#Cc1ccnc2[nH]ccc12)c1ccccc1-c1cccs1 [compound 101]
VEGFR3
  IC50: > 1000 nM
VEGFR2
  IC50: > 1000 nM
Flt3
  IC50: > 1000 nM

## Cn1cncc1C#Cc1ccnc2[nH]ccc12 [compound 66]
VEGFR3
  IC50: 100 to 1000 nM
VEGFR2
  IC50: 100 to 1000 nM
Flt3
  IC50: 100 to 1000 nM

## COc1cncc(C#Cc2ccnc3[nH]ccc23)c1 [compound 46]
VEGFR3
  IC50: 100 to 1000 nM
VEGFR2
  IC50: 100 to 1000 nM
Flt3
  IC50: 100 to 1000 nM

## CCc1ccccc1C#Cc1ccnc2[nH]ccc12 [compound 64]
VEGFR3
  IC50: 100 to 1000 nM
VEGFR2
  IC50: > 1000 nM
Flt3
  IC50: > 1000 nM

## C(#Cc1ccnc2[nH]ccc12)c1cccc(Nc2ccccc2)c1 [compound 104]
VEGFR3
  IC50: > 1000 nM
VEGFR2
  IC50: > 1000 nM
Flt3
  IC50: > 1000 nM

## FC(F)(F)c1ccccc1C#Cc1ccnc2[nH]ccc12 [compound 48]
VEGFR3
  IC50: 100 to 1000 nM
VEGFR2
  IC50: > 1000 nM
Flt3
  IC50: > 1000 nM

## Nc1cc(C#Cc2ccccc2CNC(=O)C(F)(F)F)ccn1 [compound 129]
VEGFR3
  IC50: > 1000 nM
VEGFR2
  IC50: > 1000 nM
Flt3
  IC50: > 1000 nM

## C(#Cc1ccnc2[nH]ccc12)c1ccncc1 [compound 87]
VEGFR3
  IC50: > 1000 nM
VEGFR2
  IC50: > 1000 nM
Flt3
  IC50: > 1000 nM

## COc1cccc(C#Cc2ccnc3[nH]ccc23)c1 [compound 51]
VEGFR3
  IC50: 100 to 1000 nM
VEGFR2
  IC50: > 1000 nM
Flt3
  IC50: 100 to 1000 nM
